PubChem BioAssay (NCI)
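Five compound concentrations were applied to cells in 96-well plates for 48 hours; endpoints were derived by simple linear interpolation of the resulting dose-response curve. The concentration for 50% growth inhibition is given as GI50. Definition used: TGI = concentration required for complete inhibition of growth.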

What was measured:
Test in all cases: growth of human tumour cells (NCI), 48 h
[1] = tested on: COLO 205 colon
[2] = tested on: HOP-62 NSCLC
[3] = tested on: U251 CNS
[4] = tested on: HOP-92 NSCLC
[5] = tested on: HCT-116 colon
[6] = tested on: MDA-MB-435
[7] = tested on: A549 NSCLC
[8] = tested on: DU-145 prostate
[9] = tested on: MCF7 breast
[10] = tested on: UACC-257 melanoma
[11] = tested on: SK-MEL-5 melanoma
[12] = tested on: KM12 colon
[13] = tested on: OVCAR-5 ovarian
[14] = tested on: PC-3 prostate
[15] = tested on: ACHN renal
[16] = tested on: MALME-3M melanoma
[17] = tested on: EKVX NSCLC
[18] = tested on: SN12C renal
[19] = tested on: SNB-19 CNS
[20] = tested on: OVCAR-3 ovarian
[21] = tested on: SNB-75 CNS
[22] = tested on: HCC-2998 colon
[23] = tested on: SK-OV-3 ovarian
[24] = tested on: MDA-MB-231 breast
[25] = tested on: K-562 leukemia
[26] = tested on: RXF 393 renal
[27] = tested on: LOX IMVI melanoma
[28] = tested on: UACC-62 melanoma
[29] = tested on: HT29 colon
[30] = tested on: HCT-15 colon
[31] = tested on: SF-539 CNS
[32] = tested on: RPMI-8226 leukemia
[33] = tested on: TK-10 renal
[34] = tested on: SW-620 colon
[35] = tested on: UO-31 renal
[36] = tested on: HL-60(TB) leukemia
[37] = tested on: HS 578T breast
[38] = tested on: OVCAR-4 ovarian
[39] = tested on: NCI-H23 lung
[40] = tested on: T-47D breast
[41] = tested on: SK-MEL-28 melanoma
[42] = tested on: A498 renal
[43] = tested on: MOLT-4 leukemia
[44] = tested on: CCRF-CEM leukemia
[45] = tested on: OVCAR-8 ovarian
[46] = tested on: M14 melanoma
[47] = tested on: SK-MEL-2 melanoma
[48] = tested on: NCI-H226 lung
[49] = tested on: SF-268 CNS
[50] = tested on: 786-0 renal
[51] = tested on: NCI-H522 lung
[52] = tested on: SF-295 CNS
[53] = tested on: IGROV1 ovarian
[54] = tested on: CAKI-1 renal
[55] = tested on: NCI/ADR-RES ovarian
[56] = tested on: BT-549 breast
[57] = tested on: NCI-H460 lung
[58] = tested on: SR leukemia

CCOC(=O)CC1C(COC(=O)NC)OC(n2cnc3c(NC(=O)Nc4ccccc4)ncnc32)C1O[Si](C)(C)C(C)(C)C (stereo not given)
GI50 [1]: 7.7 µM
TGI [1]: 20.2 µM
GI50 [2]: 14.7 µM
TGI [2]: 77.7 µM
GI50 [3]: 7.57 µM
TGI [3]: 32.3 µM
GI50 [4]: 6.52 µM
TGI [4]: 28.9 µM
GI50 [5]: 2330 nM
TGI [5]: 5.38 µM
GI50 [6]: 3.26 µM
TGI [6]: > 100 µM
GI50 [7]: 6.93 µM
TGI [7]: > 100 µM
GI50 [8]: 5210 nM
TGI [8]: 28.2 µM
GI50 [9]: 3370 nM
TGI [9]: 17.1 µM
GI50 [10]: 20.8 µM
TGI [10]: > 100 µM
GI50 [11]: 5700 nM
TGI [11]: 18.6 µM
GI50 [12]: 3210 nM
TGI [12]: 10.7 µM
GI50 [13]: 12.8 µM
TGI [13]: 39.7 µM
GI50 [14]: 2870 nM
TGI [14]: 25.4 µM
GI50 [15]: 5.92 µM
TGI [15]: > 100 µM
GI50 [16]: 3340 nM
TGI [16]: 33.1 µM
GI50 [17]: 3390 nM
TGI [17]: > 100 µM
GI50 [18]: 2170 nM
TGI [18]: 5.19 µM
GI50 [19]: 49.2 µM
TGI [19]: > 100 µM
GI50 [20]: 2420 nM
TGI [20]: 5.6 µM
GI50 [21]: 10.3 µM
TGI [21]: 50.2 µM
GI50 [22]: 8.76 µM
TGI [22]: 28.8 µM
GI50 [23]: 40.4 µM
TGI [23]: > 100 µM
GI50 [24]: 17.5 µM
TGI [24]: > 100 µM
GI50 [25]: 3090 nM
TGI [25]: > 100 µM
GI50 [26]: 2940 nM
TGI [26]: 12.4 µM
GI50 [27]: 7.78 µM
TGI [27]: 23 µM
GI50 [28]: 15.8 µM
TGI [28]: > 100 µM
GI50 [29]: 3970 nM
TGI [29]: 17.7 µM
GI50 [30]: 11.7 µM
TGI [30]: > 100 µM
GI50 [31]: 11.5 µM
TGI [31]: 26.4 µM
GI50 [32]: 2160 nM
TGI [32]: 5.48 µM
GI50 [33]: 10.7 µM
TGI [33]: 50 µM
GI50 [34]: 4590 nM
TGI [34]: 78.1 µM
GI50 [35]: 5700 nM
TGI [35]: 55.4 µM
GI50 [36]: 1390 nM
TGI [36]: 3780 nM
GI50 [37]: 3390 nM
TGI [37]: 14.7 µM
GI50 [38]: 10.7 µM
TGI [38]: > 100 µM
GI50 [39]: 12.9 µM
TGI [39]: 53 µM
GI50 [40]: 4950 nM
TGI [40]: 84.7 µM
GI50 [41]: 7.77 µM
TGI [41]: > 100 µM
GI50 [42]: 4650 nM
TGI [42]: 21.4 µM
GI50 [43]: 1990 nM
TGI [43]: 5.74 µM
GI50 [44]: 3230 nM
TGI [44]: > 100 µM
GI50 [45]: 10.3 µM
TGI [45]: > 100 µM
GI50 [46]: 6.37 µM
TGI [46]: 95.7 µM
GI50 [47]: 13.2 µM
TGI [47]: 57.3 µM
GI50 [48]: 11.8 µM
TGI [48]: 36.6 µM
GI50 [49]: 5060 nM
TGI [49]: 33.8 µM
GI50 [50]: 7.94 µM
TGI [50]: 21.5 µM
GI50 [51]: 9.58 µM
TGI [51]: > 100 µM
GI50 [52]: 2830 nM
TGI [52]: 15.1 µM
GI50 [53]: 13.7 µM
TGI [53]: > 100 µM
GI50 [54]: 3720 nM
TGI [54]: 38.8 µM
GI50 [55]: 9.18 µM
TGI [55]: 30.6 µM
GI50 [56]: 2070 nM
TGI [56]: 6.71 µM
GI50 [57]: 4450 nM
TGI [57]: 17.2 µM

COc1ccc2c(c1)CC[C@H](O)/C2=C/c1cc(OC)c(OC)c(OC)c1
GI50 [1]: 0.106 µM
TGI [1]: 0.639 µM
GI50 [2]: 0.0876 µM
TGI [2]: > 100 µM
GI50 [3]: 0.143 µM
TGI [3]: > 100 µM
GI50 [4]: 16.3 µM
TGI [4]: > 100 µM
GI50 [5]: 104 nM
TGI [5]: > 100 µM
GI50 [7]: 0.245 µM
TGI [7]: > 100 µM
GI50 [8]: 156 nM
TGI [8]: > 100 µM
GI50 [9]: 37.9 nM
TGI [9]: > 100 µM
GI50 [11]: 60.8 nM
TGI [11]: 2.89 µM
GI50 [12]: 93 nM
TGI [12]: > 100 µM
GI50 [13]: 0.906 µM
TGI [13]: > 100 µM
GI50 [14]: 85.5 nM
TGI [14]: > 100 µM
GI50 [15]: 0.227 µM
TGI [15]: > 100 µM
GI50 [16]: 771 nM
TGI [16]: > 100 µM
GI50 [17]: 1210 nM
TGI [17]: > 100 µM
GI50 [18]: 998 nM
TGI [18]: > 100 µM
GI50 [19]: 0.201 µM
TGI [19]: > 100 µM
GI50 [20]: 75.7 nM
TGI [20]: > 100 µM
GI50 [21]: 0.0638 µM
TGI [21]: > 100 µM
GI50 [58]: 54.6 nM
TGI [58]: > 100 µM
GI50 [22]: 0.16 µM
TGI [22]: > 100 µM
GI50 [23]: 0.138 µM
TGI [23]: > 100 µM
GI50 [24]: 0.604 µM
TGI [24]: > 100 µM
GI50 [25]: 49.2 nM
TGI [25]: > 100 µM
GI50 [27]: 0.207 µM
TGI [27]: > 100 µM
GI50 [28]: 0.0403 µM
TGI [28]: > 100 µM
GI50 [29]: 107 nM
TGI [29]: > 100 µM
GI50 [30]: 0.0567 µM
TGI [30]: > 100 µM
GI50 [31]: 0.0722 µM
TGI [31]: 0.43 µM
GI50 [32]: 1820 nM
TGI [32]: > 51.3 µM
GI50 [33]: 34.4 µM
TGI [33]: > 100 µM
GI50 [34]: 73.9 nM
TGI [34]: > 100 µM
GI50 [35]: 222 nM
TGI [35]: > 100 µM
GI50 [36]: 192 nM
TGI [36]: 860 nM
GI50 [37]: 101 nM
TGI [37]: > 100 µM
GI50 [38]: 0.952 µM
TGI [38]: > 100 µM
GI50 [39]: 0.162 µM
TGI [39]: > 100 µM
GI50 [40]: 35.4 nM
TGI [40]: 52.8 µM
GI50 [41]: 3.9 µM
TGI [41]: > 100 µM
GI50 [42]: 46.7 nM
GI50 [43]: 351 nM
TGI [43]: > 100 µM
GI50 [44]: 273 nM
TGI [44]: > 100 µM
GI50 [45]: 0.36 µM
TGI [45]: > 100 µM
GI50 [46]: 0.101 µM
TGI [46]: > 100 µM
GI50 [47]: 17.8 µM
TGI [47]: > 100 µM
GI50 [48]: 2.95 µM
TGI [48]: > 100 µM
GI50 [49]: 198 nM
TGI [49]: > 100 µM
GI50 [50]: 0.156 µM
TGI [50]: > 100 µM
GI50 [51]: 0.0824 µM
TGI [51]: 6.16 µM
GI50 [53]: 1.38 µM
TGI [53]: > 100 µM
GI50 [54]: 118 nM
TGI [54]: > 100 µM
GI50 [55]: 0.0639 µM
GI50 [56]: 147 nM
TGI [56]: 17.6 µM
GI50 [57]: 107 nM
TGI [57]: > 36.8 µM
